According to PMC7719179, “Small molecule inhibition of Dynamin-dependent endocytosis targets multiple niche signals and impairs leukemia stem cells” (Nature Communications, 2020):
Where “and” joins values, the source holds several entries; their conditions need not be identical. Identical values can stand only once.

Columns and labels:
[1] = test system: Notch1 and Hes1 in Lmo2-transgenic DN3a thymocytes; experiment: Surface Notch1 and intracellular Hes1 in Lmo2^Tg DN3a thymocytes on OP9-DL1; type: cell-based, mouse; settings: Lmo2-transgenic DN3a thymocytes on OP9-DL1 overnight, 0.2 μM Dynole 34-2
Method: Phosphoflow analysis was performed as previously described. Briefly, 2 × 10^6 cells stained for surface markers were subsequently resuspended into PBS 1× + 4% v/v paraformaldehyde and incubated for 10 min at 4 °C for fixation. Fixed cells were washed twice using PBS 1×, then resuspended in pre-chilled at −20 °C Perm Buffer III (BD Pharmingen) and incubated 30 min at 4 °C for permeabilization. Cells were washed twice using PBS 1× and incubated overnight at 4 °C in PBS 1× + 2% v/v fetal calf serum (FCS) with Cell Signalling purified antibodies (Genesearch Pty Ltd, Arundel QLD, Australia) against pSTAT5 (Tyr694; #9359), phospho-p38 MAPK (Thr180/Tyr182; #4511), phospho-p44/42 (Erk1/2; #9102), phospho-S6 (Ser235/236; #4856) and phospho-Akt (Ser473; #9271) or isotype control. […] Fluorescence-activated cell sorting (FACS) analysis was performed using LSRII and LSR Fortessa cytometers, following the gating strategies described in Supplementary Fig. 11. […]
For in vitro NOTCH1 signalling activation assays, cells were seeded on OP9 and OP9-DL1 stromal cell lines as described in the co-culture assays section and incubated overnight with either Dynole 34-2 or Ruxolitinib or DAPT resuspended in DMSO. […] Cells were washed twice, fixed and analysed for intracellular HES1 detection by flow cytometry as described in the FACS analysis section. […]

[2] = test system: Lmo2^Tg primary leukemias (T-ALL 249, T-ALL 273, T-ALL 582); experiment: In vivo efficacy in recipients of Lmo2^Tg primary T-ALL: leukemic DN3a cells, spleen weight, %Cd45.2+ in blood; design: species or system mouse; settings: for Absolute numbers CD45.2+ DN3a cells: 24 h after last administration
Method: These compounds were diluted in 50% v/v DMSO/20 mM Tris-HCl pH 7.4 immediately prior to use.
Flow cytometry analyses were performed as previously described[10],[86] on single-cell suspensions stained using BD Pharmingen antibodies (BD Australia, North Ryde NSW, Australia) against mouse CD4 (RM4-5), CD8 (53-6.7), CD25 (PC61.5), CD44 (IM7), CD45.1 (A20), CD45.2 (104), Thy1.2 (53-2.1; #561616), TCRβ (H57-597), CD117 (ACK45), CD135 (A2F10.1), CD150 (TC15-12F12.2; #562373), B220 (RA3-6B2; #563708), CD3 (145-2C11; #563004), CD19 (ID3; #557655), Gr-1 (RB6-8C5; #563299 and #565033), CD11b (M1/70; #563015 and #560455), Ter119 (Ter119; #565523 and #557909), Sca-1 (D7; #558160) and an eBioscience antibody (eBioscience, Invitrogen) against mouse NOTCH1 (22E5). DN3 populations and IL-7R were stained using BioLegend antibodies (Australian Biosearch, Balcatta WA, Australia) against mouse CD28 (E18) and CD127 (A7R34), respectively. Apoptosis was measured using an antibody against AnnexinV (#556420, BD Australia) and the […] Sytox Blue (BD Australia) following the manufacturer’s protocol. […]
The period of administration is indicated in light grey.
g, Leukemia growth delay (LGD) in recipients injected with Lmo2Tg primary leukemias treated with
Median is indicated for each condition
(bar) with Mean ± SEM indicated for each primary T-ALL, 2-way ANOVA with Tukey’s correction

## CCCCCCCCNC(=O)C(C#N)=Cc1cn(CCCN(C)C)c2ccccc12 [Dynole 34-2, 2-Cyano-N-octyl-3-(1-(3-dimethylaminopropyl)-1H-indol-3-yl)-acrylamide]
[1]
  Hes1 (MFI): 18345 MFI and 12543 MFI and 14751 MFI and 12961 MFI
  Notch1 (MFI): 16352 MFI and 11570 MFI and 16901 MFI and 11730 MFI
[2]; T-ALL 249, Spleen of recipients
  Absolute numbers CD45.2+ DN3a cells: 14400000 and 25700000 and 20600000
[2]; T-ALL 249, time 1 weeks
  Proportion of CD45.2+ (%) in peripheral blood: 1.0%
[2]; T-ALL 249, time 3 weeks
  Proportion of CD45.2+ (%) in peripheral blood: 85.0% and 93.0% and 82.0% and 75.0%
[2]; T-ALL 249, time 3.7 weeks
  Proportion of CD45.2+ (%) in peripheral blood: 85.0% and 76.0%
[2]; T-ALL 249, time 4 weeks
  Proportion of CD45.2+ (%) in peripheral blood: 42.1% and 57.0% and 54.0% and 43.9% and 53.3%
[2]; T-ALL 273, BM of recipients
  Absolute numbers CD45.2+ DN3a cells: 9200 and 6480 and 12500
[2]; T-ALL 273, time 1 weeks
  Proportion of CD45.2+ (%) in peripheral blood: 1.0%
[2]; T-ALL 273, time 5 weeks
  Proportion of CD45.2+ (%) in peripheral blood: 2.0%
[2]; T-ALL 273, time 6 weeks
  Proportion of CD45.2+ (%) in peripheral blood: 64.0%
[2]; T-ALL 582, time 1 weeks
  Proportion of CD45.2+ (%) in peripheral blood: 4.9% and 3.3% and 7.9% and 0.1%
[2]; T-ALL 582, time 2 weeks
  Proportion of CD45.2+ (%) in peripheral blood: 19.6%
[2]; T-ALL 582, time 4 weeks
  Proportion of CD45.2+ (%) in peripheral blood: 5.1% and 6.0% and 2.7% and 1.8%
[2]; T-ALL 582, time 4.1 weeks
  Proportion of CD45.2+ (%) in peripheral blood: 57.1%
[2]; T-ALL 582, time 5 weeks
  Proportion of CD45.2+ (%) in peripheral blood: 40.6% and 45.8% and 42.7% and 38.8%
[2]; T-ALL 582, time 5.6 weeks
  Proportion of CD45.2+ (%) in peripheral blood: 90.7%
[2]; T-ALL 582, time 6 weeks
  Proportion of CD45.2+ (%) in peripheral blood: 97.8%
[2]; T-ALL 582, time 6.3 weeks
  Proportion of CD45.2+ (%) in peripheral blood: 96.2%
[2]; recipients of primary T-ALL 273
  Spleen weight: 0.186 g and 0.118 g and 0.165 g
[2]; recipients of primary T-ALL 582
  Spleen weight: 0.123 g and 0.097 g and 0.095 g
